For this test, the target named is T1, DNA topoisomerase 1 (Topo1) (Spodoptera exigua, UniProt G1FWE7).
T1 construct: Topo70, N-terminally truncated, residues 337–930, GST fusion expressed in E. coli BL21 (DE3)
T1 sequence (G1FWE7 337-930): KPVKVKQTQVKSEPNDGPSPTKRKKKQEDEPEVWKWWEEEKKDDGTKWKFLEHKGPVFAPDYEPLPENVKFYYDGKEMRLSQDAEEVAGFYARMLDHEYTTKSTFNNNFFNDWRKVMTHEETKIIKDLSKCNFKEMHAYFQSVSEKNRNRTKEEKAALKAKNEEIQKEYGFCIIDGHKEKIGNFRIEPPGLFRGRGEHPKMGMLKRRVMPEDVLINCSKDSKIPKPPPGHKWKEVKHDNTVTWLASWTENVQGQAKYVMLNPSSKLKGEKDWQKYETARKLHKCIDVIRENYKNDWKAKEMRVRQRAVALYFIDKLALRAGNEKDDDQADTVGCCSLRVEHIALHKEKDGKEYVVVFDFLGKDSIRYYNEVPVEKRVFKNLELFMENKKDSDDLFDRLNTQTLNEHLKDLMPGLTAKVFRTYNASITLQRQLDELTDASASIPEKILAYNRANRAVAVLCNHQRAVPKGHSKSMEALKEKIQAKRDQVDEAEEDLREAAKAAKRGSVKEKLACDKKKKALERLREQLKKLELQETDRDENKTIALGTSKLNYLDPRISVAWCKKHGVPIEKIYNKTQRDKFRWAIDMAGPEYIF
The test can be described thus: pBR322 DNA relaxation assay with purified recombinant Topo1, agarose gel densitometry. It is filed as biochemical.

A word on the EC50: it is the midpoint of the concentration-response curve.

As for `CC[C@@]1(O)C(=O)OCc2c1cc1n(c2=O)Cc2cc3ccccc3nc2-1` [CPT, Camptothecin], the EC50 came to 4.42 µM. With `CC[C@@]1(O)C(=O)OCc2c1cc1n(c2=O)Cc2cc3cc(O)ccc3nc2-1` [HCPT, hydroxy-camptothecin], the EC50 amounted to 15.2 µM.

These data come from PMC3579855, “Characterization of DNA Topoisomerase-1 in Spodoptera exigua for Toxicity Evaluation of Camptothecin and Hydoxy-Camptothecin” (PLoS ONE, 2013).
